Test results as given in the supplement of paper PMC11451515.

Test system: P12-Ichikawa
Test: cell viability relative to DMSO control; higher = less cytotoxic
Settings: 48 h
Procedure, shortened: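 Viability was expressed as a per-plate percentage of DMSO wells, with cell-free wells as background. Leukemia cells (NOMO1 or SEM at 500 cells/well, P12-Ichikawa at 1000 cells/well) were adapted for at least four passages in each medium and seeded in 1536-well plates (5 μl). Library compounds in DMSO were pin-dosed over an 11-point threefold series from 47 μM to 0.79 nM, and CellTiter-Glo One luminescence was read after 48 h at 37°C.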

[1] = HPLM + 10% dialyzed FBS, 0.000781 µM
[2] = HPLM + 10% dialyzed FBS, 0.00234 µM
[3] = HPLM + 10% dialyzed FBS, 0.00702 µM
[4] = HPLM + 10% dialyzed FBS, 0.0211 µM
[5] = HPLM + 10% dialyzed FBS, 0.0632 µM
[6] = HPLM + 10% dialyzed FBS, 0.19 µM
[7] = HPLM + 10% dialyzed FBS, 0.569 µM
[8] = HPLM + 10% dialyzed FBS, 1.71 µM
[9] = HPLM + 10% dialyzed FBS, 5.12 µM
[10] = HPLM + 10% dialyzed FBS, 15.4 µM
[11] = HPLM + 10% dialyzed FBS, 46.1 µM
[12] = RPMI 5 mM glucose + 10% FBS, 0.000781 µM
[13] = RPMI 5 mM glucose + 10% FBS, 0.00234 µM
[14] = RPMI 5 mM glucose + 10% FBS, 0.00702 µM
[15] = RPMI 5 mM glucose + 10% FBS, 0.0211 µM
[16] = RPMI 5 mM glucose + 10% FBS, 0.0632 µM
[17] = RPMI 5 mM glucose + 10% FBS, 0.19 µM
[18] = RPMI 5 mM glucose + 10% FBS, 0.569 µM
[19] = RPMI 5 mM glucose + 10% FBS, 1.71 µM
[20] = RPMI 5 mM glucose + 10% FBS, 5.12 µM
[21] = RPMI 5 mM glucose + 10% FBS, 15.4 µM
[22] = RPMI 5 mM glucose + 10% FBS, 46.1 µM
[23] = RPMI 5 mM glucose + 10% dialyzed FBS, 0.000781 µM
[24] = RPMI 5 mM glucose + 10% dialyzed FBS, 0.00234 µM
[25] = RPMI 5 mM glucose + 10% dialyzed FBS, 0.00702 µM
[26] = RPMI 5 mM glucose + 10% dialyzed FBS, 0.0211 µM
[27] = RPMI 5 mM glucose + 10% dialyzed FBS, 0.0632 µM
[28] = RPMI 5 mM glucose + 10% dialyzed FBS, 0.19 µM
[29] = RPMI 5 mM glucose + 10% dialyzed FBS, 0.569 µM
[30] = RPMI 5 mM glucose + 10% dialyzed FBS, 1.71 µM
[31] = RPMI 5 mM glucose + 10% dialyzed FBS, 5.12 µM
[32] = RPMI 5 mM glucose + 10% dialyzed FBS, 15.4 µM
[33] = RPMI 5 mM glucose + 10% dialyzed FBS, 46.1 µM

Row | SMILES | cell viability [1] [%] | cell viability [2] [%] | cell viability [3] [%] | cell viability [4] [%] | cell viability [5] [%] | cell viability [6] [%] | cell viability [7] [%] | cell viability [8] [%] | cell viability [9] [%] | cell viability [10] [%] | cell viability [11] [%] | cell viability [12] [%] | cell viability [13] [%] | cell viability [14] [%] | cell viability [15] [%] | cell viability [16] [%] | cell viability [17] [%] | cell viability [18] [%] | cell viability [19] [%] | cell viability [20] [%] | cell viability [21] [%] | cell viability [22] [%] | cell viability [23] [%] | cell viability [24] [%] | cell viability [25] [%] | cell viability [26] [%] | cell viability [27] [%] | cell viability [28] [%] | cell viability [29] [%] | cell viability [30] [%] | cell viability [31] [%] | cell viability [32] [%] | cell viability [33] [%]
1 | COC1=NC(=NC(=C1N\C2=N\CCN2)Cl)C | 87 | 90 | 83.9 | 98.2 | 94.8 | 94.1 | 93.4 | 95 | 93.9 | 103 | 109 | 84.1 | 95.6 | 88.3 | 95.3 | 100 | 94.9 | 101 | 95.5 | 82.6 | 93.4 | 107 | 83.3 | 91.6 | 83.6 | 95.1 | 89.6 | 87.7 | 91.4 | 88.6 | 84.5 | 94 | 87.5
2 | C/C=C(/C)C(=O)O[C@H]1C(C)=C2[C@H]([C@@H]1OC(=O)CCCCCCC)[C@@](C)(OC(C)=O)C[C@H](OC(=O)CCC)[C@@]1(O)[C@H]2OC(=O)[C@@]1(C)O | 103 | 114 | 111 | 109 | 104 | 71 | 38.5 | 51.5 | 67 | 69.8 | 75.2 | 120 | 129 | 107 | 125 | 96.8 | 66.4 | 22.1 | 23.8 | 46 | 48.2 | 42.4 | 109 | 121 | 123 | 112 | 95.7 | 52.6 | 13.3 | 8.27 | 16.7 | 20.3 | 22.7
3 | Cn1c(=O)c2c(ncn2C)n(C)c1=O.O=C(O)CC(O)(CC(=O)O)C(=O)O | 108 | 106 | 112 | 111 | 111 | 113 | 105 | 105 | 96.8 | 101 | 93.1 | 116 | 119 | 126 | 126 | 121 | 117 | 115 | 116 | 120 | 110 | 107 | 106 | 114 | 110 | 111 | 110 | 109 | 105 | 114 | 113 | 106 | 96.3
4 | COC1=CC2=NC=CC(=C2C=C1)OC3=CN=C(NC(=O)C/4=C(C)/N(CC(C)(C)O)N(C4=O)C5=CC=CC=C5)C=C3 | 87.7 | 92.6 | 87.6 | 91.3 | 97.1 | 96.4 | 95 | 91.6 | 76.9 | 85.7 | 74.4 | 89.4 | 87.9 | 89.7 | 92.1 | 92.1 | 91.9 | 89.5 | 90.5 | 70.1 | 90 | 63.6 | 81.1 | 88.7 | 89.8 | 98.5 | 96.6 | 93.2 | 94.9 | 91.4 | 78.8 | 81.9 | 61.2
5 | Cc1cc(OCCCc2c(C(=O)O)n(Cc3cccnc3)c3c(-c4c(COc5ccc(N6CCN([S+](C)(=O)[O-])CC6)cc5)nn(C)c4C)cccc23)cc(C)c1Cl | 99.6 | 100 | 100 | 97 | 99.8 | 97.4 | 92.9 | 96.1 | 86.9 | 88.1 | 80.4 | 92.4 | 102 | 96.6 | 102 | 101 | 95.6 | 85.9 | 89.3 | 86.2 | 88.3 | 77.1 | 91.3 | 95 | 99.3 | 97.5 | 102 | 98.4 | 90.9 | 93.5 | 93.1 | 78.2 | 82.9
6 | O=C(NOCC(O)CO)c1cc(Br)c(F)c(F)c1Nc1ccc(I)cc1F (stereo not drawn) | 82.9 | 84.2 | 81.7 | 87.8 | 83.8 | 74.8 | 74.4 | 68.2 | 64.2 | 73.9 | 52.3 | 74.6 | 87.6 | 79 | 73.8 | 80.3 | 67.9 | 63.8 | 62.5 | 56.2 | 66.4 | 54.5 | 76.2 | 79.2 | 73.9 | 81.9 | 74.3 | 71.2 | 65.6 | 71.8 | 66.1 | 76.6 | 58.7
7 | FC(F)(F)c1ccc(/C=C/c2nc(COc3ccc(CCCCn4ccnn4)cc3)co2)cc1 | 119 | 124 | 110 | 97.3 | 88 | 86.9 | 83.4 | 85.6 | 40.4 | 35.6 | 81.6 |  |  |  |  |  |  |  |  |  |  |  |  |  |  |  |  |  |  |  |  |  | 
8 | CN1[C@@H]2CC(OC(=O)[C@@H](CO)c3ccccc3)C[C@H]1[C@H]1O[C@H]12 (stereo partly drawn) | 97 | 94.9 | 103 | 103 | 101 | 101 | 101 | 103 | 98.7 | 92.9 | 102 | 98.8 | 100 | 102 | 106 | 107 | 105 | 106 | 110 | 98.8 | 104 | 104 | 94.3 | 97.1 | 93.1 | 95.2 | 99.2 | 96.3 | 93.3 | 95 | 101 | 89.5 | 105
9 | CN[S+](=O)([O-])Cc1ccc2[nH]cc(CCN(C)C)c2c1 | 110 | 122 | 112 | 118 | 123 | 126 | 123 | 123 | 116 | 120 | 126 | 115 | 123 | 125 | 116 | 128 | 119 | 131 | 136 | 125 | 130 | 131 | 106 | 113 | 113 | 122 | 119 | 121 | 128 | 131 | 121 | 127 | 121
10 | CC1(C)CC(=O)c2c(C(F)(F)F)nn(-c3ccc(C(N)=O)c(NC4CCC(O)CC4)c3)c2C1 (stereo not drawn) | 90.3 | 87.3 | 85.5 | 82.4 | 90 | 67.1 | 42 | 33.7 | 36.1 | 36.6 | 80.9 | 84 | 93.5 | 85.6 | 77.6 | 82.2 | 48.2 | 32.1 | 25.6 | 27.6 | 28.1 | 84.5 | 84.2 | 81.9 | 81.9 | 73.1 | 80.8 | 44.3 | 28.7 | 30.4 | 25.5 | 27.8 | 73.7
11 | Oc1ccc2c3c1O[C@H]1c4[nH]c5c(c4C[C@@]4(O)[C@@H](C2)N(CC2CC2)CC[C@]314)C[C@@]1(O)[C@H]2Cc3ccc(O)c4c3[C@@]1(CCN2CC1CC1)[C@H]5O4 | 100 | 111 | 113 | 117 | 120 | 118 | 130 | 121 | 120 | 119 | 121 | 114 | 123 | 118 | 122 | 122 | 124 | 115 | 126 | 127 | 137 | 132 | 97.8 | 110 | 113 | 112 | 120 | 123 | 117 | 122 | 119 | 129 | 134
12 | NC1(Cc2ccc(Cl)cc2)CCN(c2ncnc3[nH]ccc23)CC1 | 105 | 109 | 105 | 108 | 106 | 103 | 102 | 94.7 | 82.3 | 65.8 | 48.3 | 101 | 99.4 | 101 | 99.7 | 91.9 | 97.8 | 84.7 | 73.1 | 53.7 | 40.7 | 28.5 | 103 | 103 | 104 | 102 | 102 | 91.1 | 91 | 79.6 | 66.9 | 47 | 34.5
13 | Cc1cn2c(-c3cn[nH]c3)cnc2c(Nc2ccc(C(=O)N3CCNCC3)cc2F)n1 | 98.2 | 104 | 100 | 99.8 | 101 | 103 | 104 | 97.7 | 91.9 | 73.4 | 43.5 | 105 | 98.3 | 95.7 | 91.8 | 103 | 96.8 | 95.1 | 96.9 | 90.4 | 74.6 | 49.2 | 104 | 105 | 102 | 99.5 | 105 | 107 | 109 | 95.6 | 94.4 | 65.3 | 42.5
14 | CC(=O)O[C@H]1C(=O)[C@]2(C)[C@@H](O)C[C@H]3OC[C@@]3(OC(C)=O)C2[C@H](OC(=O)C4=CC=CC=C4)[C@]5(O)C[C@H](OC(=O)[C@H](O)[C@@H](NC(=O)C6=CC=CC=C6)C7=CC=CC=C7)\C(=C1/C5(C)C)C (stereo partly drawn) | 93.3 | 42.1 | 35.2 | 27.6 | 31.9 | 27.8 | 25.7 | 27.1 | 25 | 19.1 | 15.3 | 88.3 | 48 | 34.3 | 24 | 26.1 | 24.8 | 27.8 | 23 | 26 | 19.3 | 14.3 | 95.8 | 58.3 | 41.4 | 31.5 | 37.7 | 39.7 | 35.9 | 38.8 | 37.7 | 31.9 | 25.9
15 | CCc1cc(Nc2nccc(-c3c(-c4ccc(OC)c(C(=O)Nc5c(F)cccc5F)c4)nc4ccccn34)n2)c(OC)cc1N1CCC(N2CCN([S+](C)(=O)[O-])CC2)CC1 | 97.9 | 108 | 100 | 112 | 107 | 112 | 110 | 110 | 112 | 87.1 | 39.8 | 98.3 | 101 | 106 | 105 | 107 | 113 | 111 | 113 | 109 | 85.1 | 37.9 | 108 | 116 | 112 | 114 | 107 | 107 | 109 | 125 | 115 | 87.4 | 49.6
